Values of other authors as cited in publication PMC7744997 (Clinical Infectious Diseases: An Official Publication of …, 2020).

Tested on: RSV
Settings: cited from earlier work

SMILES | Outcome on viral load endpoints in clinical studies
Cc1ccc([C@]23Cn4cccc4C(=O)N2CCN3C(=O)c2conc2C)cn1 [BTA-C585] | failure to meet viral load endpoints
Cc1cn2nc([C@@H]3CCCCN3C(=O)c3cc(Cl)ccc3NS(C)(=O)=O)cc2nc1N1CC[C@H](N)C1 [presatovir] | failure to meet viral load endpoints
